# System: postnatal day 7 rat cerebellar granule neurons (CGN)
# Assay: Neurite outgrowth inhibition assay on spinal cord myelin
# Format: cell-based
# Procedure: A) P7 CGN cells are incubated for 16 hr on wells coated without spinal cord myelin (no SC, white bars) or wells coated with spinal cord myelin in the absence (SC, red bars) or presence of anti-LINGO-1 IgG4 antibodies, a control anti-lysozyme IgG4 antibody 3207 (green bars) or […] of the ROCK inhibitor Y27632 (yellow bar). […] The experiment is performed in three 96 well plates with an SC and no SC condition per plate to which the effects of the antibodies on that plate are compared and mean neurite length per neuron (μm) is calculated for 500 neurons per well in replicates of 10. The percentage inhibition (white text) is calculated as the percentile difference in mean neurite length/neuron between cells plated on wells coated with and without SC. The percentage disinhibition (black italic text) is calculated as the difference in mean neurite length between cells plated on SC in the presence and absence of anti-LINGO-1 antibody as a percentile of the difference between cells plated on wells coated with and without SC. *p<0.05, **p<0.01 (one way ANOVA, Holm-Sidak comparison to mean neurite length/neuron for cells plated on spinal cord myelin in the absence of antibody).
# A) P7 CGN cells are incubated for 8 hr on wells coated without spinal cord myelin (no SC, white bars) or wells coated with spinal cord myelin in the absence (SC, red bars) or presence of anti-LINGO-1 IgG4 antibodies or a control anti-lysozyme IgG4 antibody 3207. The experiment is performed in three 96 well plates with an SC and no SC condition per plate to which the effects of the antibodies on that plate are compared and mean neurite length per neuron (μm) is calculated for 500 neurons per well in replicates of 10. The percentage inhibition (white text) and disinhibition (black italic text) is calculated as above. **p<0.01 (one way ANOVA, Holm-Sidak comparison to mean neurite length/neuron for cells plated on spinal cord myelin in the absence of antibody).
# P7 CGN cells are incubated for 8 hr on wells coated without spinal cord myelin (no SC) or wells coated with spinal cord myelin in the absence (SC) or presence of the indicated concentrations of anti-LINGO-1 IgG4 antibodies 4784 or 4785, a control anti-lysozyme IgG4 antibody 3207 or 1 μM Y27632 (ROCK). The experiment is performed in three 96 well plates with an SC and no SC condition per plate to which the effects of the antibodies on that plate are compared and mean neurite length per neuron (μm) is calculated for 500 neurons per well in replicates of 10. The percentage inhibition (white text) and disinhibition (black italic text) is calculated as above. *p<0.05, **p<0.01 (one way ANOVA, Holm-Sidak comparison to mean neurite length/neuron for cells plated on spinal cord myelin in the absence of antibody). […]
smiles,measurement,setting,value
"C[C@@H](N)[C@H]1CC[C@H](C(=O)Nc2ccncc2)CC1 [Y27632, reference compound]",disinhibition of spinal cord myelin,"1 μM Y27632, 8 hr incubation (FIG. 4)",65-74%
same,disinhibition of spinal cord myelin (neurite outgrowth),"1 μm Y27632, 16 hr incubation (FIG. 2), compared to 4784 and 4785",greater level of disinhibition

# From patent US20130071400A1, “LINGO binding molecules and Pharmaceutical Use Thereof” (NOVARTIS AG, priority 2006, published 2013)
